In assay [1] the test system is Homo sapiens. The experiment in a line: Increase in P-gp-substrate 99mTc]sestaMIBI accumulation in liver of human with metastatic cancer at 150 mg, iv by imaging analysis. The class given is functional.
Assay [2] deals with Homo sapiens. The experiment in a line: Increase in P-gp-substrate 99mTc]sestaMIBI accumulation in tumor and heart of human with metastatic cancer at 150 mg, iv by imaging analysis. The class given is functional.

As to `COc1cc2c(cc1OC)CN(CCc1ccc(NC(=O)c3cc(OC)c(OC)cc3NC(=O)c3cnc4ccccc4c3)cc1)CC2` [TARIQUIDAR], the figures for the Activity in assay [1] and in assay [2] were 128% and 36%, respectively.

(Values after ChEMBL document CHEMBL1154709, “Perspectives of P-glycoprotein modulating agents in oncology and neurodegenerative diseases: pharmaceutical, biological, and diagnostic potentials” (2010).)
